Experiment [1] deals with protein kinase C (mixed isozymes of a, b, g). The experiment is described as follows: Inhibition of protein kinase C activity (Millipore Multiscreen TCA in-plate assay). It is filed as biochemical. The settings on record: read-out: PKC IC50. The protocol:
Protein kinase C activity was assessed using the Millipore Multiscreen TCA “in-plate” assay as described in Pitt, A. M. and Lee, C. (J. Biomol. Screening, 1: 47-51, 1996). Assays were performed in 96-well Multiscreen-DP plates (Millipore). Each […] assay mixture contained 20 mM Hepes, pH 7.4, 10 mM MgCl2, 2.5 mM EGTA, 2.5 mM CaCl2, 80 mg/ml phosphatidyl serine, 3.2 mg/ml diolein, 200 mg/ml histone H-1(Fluka), 5 mM [γ-^32P]ATP, 1.5 ng protein kinase C (UBI; mixed isozymes of a, b, g), 0.1% BSA, 2% DMSO, and test bridged fused pyrrolocarbazole compound. The reaction was allowed to proceed for 10 min at 37° C., then quenched by adding ice cold 50% trichloroacetic acid. The plates were allowed to equilibrate for 30 min at 4° C., then washed with ice cold 25% TCA. Scintillation cocktail was added to the plates, and the radioactivity was determined using Wallac MicroBeta 1450 PLUS scintillation counter. The IC50 values were calculated by fitting the data to the sigmoidal dose-response (variable slope) equation in GraphPad Prism.

Experiment [2] deals with T1, PDGFβ receptor kinase domain (Homo sapiens, UniProt P09619).
T1 construct: baculovirus-expresses PDGFβ receptor kinase domain; made in house; host or cells: baculovirus expression system
In words: Inhibition of PDGF receptor kinase activity (ELISA). It is filed as biochemical. The conditions noted are these: 20 μM ATP; read-out: PDGFR IC50. The protocol: Bridged indenopyrrolocarbazole compounds were examined for their inhibitory effects on the kinase activity of baculovirus-expresses PDGFβ receptor kinase domain using the trkA kinase ELISA described above. Assays were performed in substrate (PLC-γ/GST)-coated 96-well microtiter plates. Each 100-μl reaction mixture contained 50 mM HEPES, pH 7.4, 20 μM ATP, 10 mM MnCl2, 0.1% BSA, 2% DMSO, and various concentrations of inhibitor. The reaction was initiated by addition of prephosphorylated recombinant human enzyme (10 ng/ml PDGFRβ) and allowed to proceed for 15 minutes at 37° C. The prephosphorylated enzyme was prepared prior to use by incubation of the kinase in buffer containing 20 μM ATP and 10 mM MnCl2 for 1 hour at 4° C. Detection of phosphorylated product was done by adding horseradish peroxidase (HRP)-conjugated anti-phosphotyrosine antibody (UBI). The HRP substrate solution containing 3, 3′-5, 5′-tetramethylbenzidine and hydrogen peroxide was later added and the plates were incubated for 10 minutes at room temperature. The reaction was quenched with acid and the resulting absorbance was read at 450 nm using a Microplate Bio-kinetics Reader (Bio-Tek Instrument EL 312e). Inhibition data were analyzed using the sigmoidal dose-response (variable slope) equation in GraphPad Prism.

For experiment [3], the target named is T2, trkA in NIH3T3 cells transfected with trkA (Homo sapiens, UniProt P04629).
T2 construct: expressed in transfected cells; host or cells: NIH3T3 cells
In words: Inhibition of NGF-stimulated trk phosphorylation in a whole cell preparation. The settings on record: NGF 10 ng/ml, percent decrease in trk protein band. The class given is cell-based. The protocol:
NIH3T3 cells transfected with trkA were grown in 100 mm dishes. Subconfluent cells were serum-starved by replacing media with serum-free 0.05% BSA-DMEM containing compound (100 nM and 1 μM) or DMSO (added to controls) for one hour at 37° C. NGF (Harlan/Bioproducts for Science) was then added to the cells at a concentration of 10 ng/ml for 5 minutes. Cells were lysed in buffer containing detergent and protease inhibitors. Clarified cell lysates were normalized to protein using BCA method and immunoprecipitated with anti-trk antibody. Polyclonal anti-trk antibody was prepared against a peptide corresponding to the 14 amino acids at the carboxy terminus of trk (Martin-Zanca et al., Mol. Cell. Biol. 9: 24-33, 1989). The immune complexes were collected on Protein A Sepharose beads (Sigma Chem. Co., St. Lois, Mo.), separated by SDS polyacrylamide gel electrophoresis (SDS-PAGE), and transferred to a polyvinylidene difluoride (PVDF) membrane. The membrane was immunoblotted with anti-phosphotyrosine antibody (UBI), followed by incubation with horseradish peroxidase coupled goat anti-mouse IgG (Bio-Rad Laboratories, Hercules, Calif.). Phosphorylated proteins were visualized using ECL (Amersham Lite Science, Inc., Arlington Heights, Ill.). The area of the trk protein band was measured and compared to NGF-stimulated control. The inhibition scoring system used, based on percent decrease in trk protein band, was as follows: 0=no decrease; 1=1-25%; 2=26-49%; 3=50-75%; 4=76-100% Results are shown below in Table 3.

The next experiment relates to Spinal Cord ChAT. The experiment is described as follows: Enhancement of spinal cord ChAT activity in dissociated rat embryonic spinal cord culture. The class given is cell-based. The protocol: For example, In these assays, a compound was directly added to a dissociated spinal cord culture. Compounds which increased ChAT activity at least 120% of the control activity were considered active.
Methods: Fetal rat spinal cord cells were dissociated, and experiments were performed as described (Smith et al., J. Cell Biology 101:1608-1621(1985); Glicksman et al., J. Neurochem. 61:210-221(1993) ). Dissociated cells were prepared from spinal cords dissected from rats (embryonic day 14-15) by standard trypsin dissociation techniques (Smith et al., supra.). Cells were plated at 6×10^5 cells/cm^2 on poly-1-ornithine coated plastic tissue culture wells in serum-free N2 medium supplemented with 0.05% bovine serum albumin (BSA) (Bottenstein et al., PNAS USA 76:514-517 (1979) ). Cultures were incubated at 37° C. in a humidified atmosphere of 5% CO2/95% air for 48 hours. ChAT activity was measured after 2 days in vitro using a modification of the Fonnum procedure (Fonnum, J. Neurochem. 24:407-409 (1975) ) according to McManaman et al. and Glicksman et al. (McManaman et al., Developmental Biology 125:311-320(1988); Glicksman et al., J. Neurochem., supra.).

Experiment [4] has as its target T3, VEGF receptor (human flk-1, KDR, VEGFR2) kinase domain (Homo sapiens, UniProt P35968).
T3 construct: VEGF receptor (human flk-1, KDR, VEGFR2) kinase domain; made in house; host or cells: baculovirus expression system
The experiment is described as follows: Inhibition of VEGF receptor kinase activity (ELISA). It is filed as biochemical. The settings on record: 40 μM ATP; read-out: VEGFR kinase IC50. The protocol:
Bridged indenopyrrolocarbazole compounds were examined for their inhibitory effects on the kinase activity of baculovirus-expressed VEGF receptor (human flk-1, KDR, VEGFR2) kinase domain using the procedure described for the trkA kinase ELISA assay described above. The kinase reaction mixture, consisting of 50 mM Hepes, pH 7.4, 40 μM ATP, 10 mM MnCl2, 0.1% BSA, 2% DMSO, and various concentrations of inhibitor, was transferred to PLC-γ/GST-coated plates. VEGFR kinase was added and the reaction was allowed to proceed for 15 min. at 37° C. Detection of phosphorylated product was accomplished by addition of anti-phosphotyrosine antibody (UBI). A secondary enzyme-conjugated antibody was delivered to capture the antibody-phosphorylated PLC-γ/GST complex. The activity of the bound enzyme was measured via an amplified detection system (Gibco-BRL). Inhibition data were analyzed using the sigmoidal dose-response (variable slope) equation in GraphPad Prism.
For orientation: In an ELISA, binding on a coated surface is turned into a signal by an enzyme label.

Experiment [5] addresses T4, baculovirus-expressed human trkA cytoplasmic domain (Homo sapiens, UniProt P04629).
T4 construct: baculovirus-expressed human trka cytoplasmic domain; made in house; host or cells: baculovirus expression system
The experiment is described as follows: Inhibition of trkA tyrosine kinase activity (ELISA-based assay). The class given is biochemical. The conditions noted are these: 40 μM ATP. The protocol: Selected bridged indenopyrrolocarbazole compounds were tested for their ability to inhibit the kinase activity of baculovirus-expressed human trka cytoplasmic domain using an ELISA-based assay as previously described (Angeles et al., Anal. Biochem. 236: 49-55, 1996). Briefly, the 96-well microtiter plate was coated with substrate solution (recombinant human phospholipase C-γl/glutathione S-transferase fusion protein (Rotin et al., EMBO J., 11: 559-567, 1992). Inhibition studies were performed in 100 μl assay mixtures containing 50 mM Hepes, pH 7.4, 40 μM ATP, 10 mM MnCl2, 0.1% BSA, 2% DMSO, and various concentrations of inhibitor. The reaction was initiated by addition of trkA kinase and allowed to proceed for 15 minutes at 37° C. An antibody to phosphotyrosine (UBI) was then added, followed by a secondary enzyme-conjugated antibody, alkaline phosphatase-labelled goat anti-mouse IgG (Bio-Rad). The activity of the bound enzyme was measured via an amplified detection system (Gibco-BRL). Inhibition data were analyzed using the sigmoidal dose-response (variable slope) equation in GraphPad Prism.

T2 sequence (P04629 33-796): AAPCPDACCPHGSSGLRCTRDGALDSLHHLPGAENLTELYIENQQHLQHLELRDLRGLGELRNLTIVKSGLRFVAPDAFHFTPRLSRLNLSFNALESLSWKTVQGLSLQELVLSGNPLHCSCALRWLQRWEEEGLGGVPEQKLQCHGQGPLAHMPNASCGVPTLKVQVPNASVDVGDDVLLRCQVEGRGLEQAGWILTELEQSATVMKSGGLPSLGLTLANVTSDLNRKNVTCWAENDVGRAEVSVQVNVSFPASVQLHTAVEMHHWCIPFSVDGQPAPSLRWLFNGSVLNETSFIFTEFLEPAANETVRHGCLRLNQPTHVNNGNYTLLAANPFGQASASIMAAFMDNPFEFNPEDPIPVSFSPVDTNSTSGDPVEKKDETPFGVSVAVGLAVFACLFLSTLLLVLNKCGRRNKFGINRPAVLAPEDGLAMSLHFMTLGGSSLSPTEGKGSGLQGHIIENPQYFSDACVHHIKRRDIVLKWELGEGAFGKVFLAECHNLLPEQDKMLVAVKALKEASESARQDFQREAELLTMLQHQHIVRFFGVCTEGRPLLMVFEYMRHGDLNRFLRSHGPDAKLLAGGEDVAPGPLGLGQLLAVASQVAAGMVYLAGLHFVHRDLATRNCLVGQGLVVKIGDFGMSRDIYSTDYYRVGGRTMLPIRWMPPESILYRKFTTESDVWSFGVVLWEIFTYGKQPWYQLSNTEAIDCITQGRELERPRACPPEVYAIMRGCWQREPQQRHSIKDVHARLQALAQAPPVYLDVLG
T4 sequence (P04629 440-796 limits assumed): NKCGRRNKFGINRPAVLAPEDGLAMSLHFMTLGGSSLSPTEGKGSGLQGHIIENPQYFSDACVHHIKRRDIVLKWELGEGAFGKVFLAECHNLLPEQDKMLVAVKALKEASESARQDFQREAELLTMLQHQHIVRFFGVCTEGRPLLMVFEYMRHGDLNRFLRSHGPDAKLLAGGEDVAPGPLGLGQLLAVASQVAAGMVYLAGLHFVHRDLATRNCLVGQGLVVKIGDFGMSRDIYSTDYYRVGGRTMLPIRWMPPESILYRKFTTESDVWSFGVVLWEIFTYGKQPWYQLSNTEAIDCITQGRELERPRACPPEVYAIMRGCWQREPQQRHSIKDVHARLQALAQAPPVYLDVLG
T3 sequence (P35968 834-1162 limits assumed): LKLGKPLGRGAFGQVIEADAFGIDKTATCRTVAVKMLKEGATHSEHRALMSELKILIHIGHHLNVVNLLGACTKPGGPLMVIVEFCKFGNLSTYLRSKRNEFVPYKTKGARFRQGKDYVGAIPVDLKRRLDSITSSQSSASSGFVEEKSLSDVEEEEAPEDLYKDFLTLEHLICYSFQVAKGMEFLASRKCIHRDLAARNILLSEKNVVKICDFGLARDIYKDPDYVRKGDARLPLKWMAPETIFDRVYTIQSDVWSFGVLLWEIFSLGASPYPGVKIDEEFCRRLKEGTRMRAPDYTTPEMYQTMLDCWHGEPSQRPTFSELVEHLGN
T1 sequence (P09619 600-962 limits assumed): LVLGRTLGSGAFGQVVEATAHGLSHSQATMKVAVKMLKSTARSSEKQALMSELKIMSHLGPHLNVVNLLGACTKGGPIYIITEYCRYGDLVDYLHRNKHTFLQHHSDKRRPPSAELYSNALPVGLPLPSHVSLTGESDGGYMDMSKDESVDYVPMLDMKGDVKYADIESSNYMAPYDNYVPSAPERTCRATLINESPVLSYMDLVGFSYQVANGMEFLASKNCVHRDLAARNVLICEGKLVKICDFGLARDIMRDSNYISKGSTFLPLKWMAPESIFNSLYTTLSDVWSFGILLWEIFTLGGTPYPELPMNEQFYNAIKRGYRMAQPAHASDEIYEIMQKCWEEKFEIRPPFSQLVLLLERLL

Consider `O=C1NCc2c1c1c3c4c2c2ccccc2n4C2CCC(O2)C3c2ccccc2-1` (centres unmarked) [II-1], for which the IC50 was found to be 1300 nM in experiment [1], 1380 nM in experiment [2], 30 nM in experiment [4] and 13 nM in experiment [5]. Besides, the “Inhibition Score at 100 nM” value in experiment [3] (100 nM compound) is on record as 3 (3=50-75%). In addition, the “Inhibition Score at 1000 nM” value in experiment [3] (1000 nM compound) is listed as 4 (4=76-100%). The “Spinal Cord ChAT Activity at 30 nM” value in the experiment with Spinal Cord ChAT (30 nM, active if at least 120% of control) came to 114 % control. Further, the “Spinal Cord ChAT Maximal Activity” value in the experiment with Spinal Cord ChAT (concentration of maximal activity printed in cell (300 nM)) was 139 @ 300 nM % control.

Broadly, the IC50 is the concentration at which inhibition is half-maximal.

The values above are taken from patent US6359130B1, “Bridged indenopyrrolocarbazoles” (Cephalon, Inc., priority 1998, dated 2002).
